Experimental data from US20230151003A1, “COMPOUNDS AND METHODS OF USE” (Exelixis, Inc., priority 2020, published 2023).

Key:
[1] = target: Met (Homo sapiens, UniProt P08581); test: Met autophosphorylation ELISA in PC-3 cells; format: cell-based; parameters: endogenous in cells; host or cells: PC-3 prostate cancer cells (ATCC #CRL-1435); conditions: Table 3 Cellular Activities, HGF-stimulated, phospho-Met ELISA, read-out: c-Met IC50
How it was run: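 IC50 derived by 4-parameter logistic regression of phospho-Met (panTyr) sandwich ELISA signal, scaled between HGF-stimulated DMSO and reference-inhibitor lysates. PC-3 cells, serum-starved 3 h, received an 8-point compound series (0.3% DMSO) for 1 h before 10 min stimulation with 100 ng/mL human HGF.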

[2] = target: T1, AXL (Homo sapiens, UniProt P30530); test: AXL autophosphorylation ELISA in A-172 cells; format: cell-based; conditions: Table 3 Cellular Activities, Gas6-stimulated, phospho-AXL ELISA
T1 construct: endogenous in cells; host or cells: A-172 glioblastoma cells (ATCC #CRL-1620)
T1 sequence (P30530 26-894): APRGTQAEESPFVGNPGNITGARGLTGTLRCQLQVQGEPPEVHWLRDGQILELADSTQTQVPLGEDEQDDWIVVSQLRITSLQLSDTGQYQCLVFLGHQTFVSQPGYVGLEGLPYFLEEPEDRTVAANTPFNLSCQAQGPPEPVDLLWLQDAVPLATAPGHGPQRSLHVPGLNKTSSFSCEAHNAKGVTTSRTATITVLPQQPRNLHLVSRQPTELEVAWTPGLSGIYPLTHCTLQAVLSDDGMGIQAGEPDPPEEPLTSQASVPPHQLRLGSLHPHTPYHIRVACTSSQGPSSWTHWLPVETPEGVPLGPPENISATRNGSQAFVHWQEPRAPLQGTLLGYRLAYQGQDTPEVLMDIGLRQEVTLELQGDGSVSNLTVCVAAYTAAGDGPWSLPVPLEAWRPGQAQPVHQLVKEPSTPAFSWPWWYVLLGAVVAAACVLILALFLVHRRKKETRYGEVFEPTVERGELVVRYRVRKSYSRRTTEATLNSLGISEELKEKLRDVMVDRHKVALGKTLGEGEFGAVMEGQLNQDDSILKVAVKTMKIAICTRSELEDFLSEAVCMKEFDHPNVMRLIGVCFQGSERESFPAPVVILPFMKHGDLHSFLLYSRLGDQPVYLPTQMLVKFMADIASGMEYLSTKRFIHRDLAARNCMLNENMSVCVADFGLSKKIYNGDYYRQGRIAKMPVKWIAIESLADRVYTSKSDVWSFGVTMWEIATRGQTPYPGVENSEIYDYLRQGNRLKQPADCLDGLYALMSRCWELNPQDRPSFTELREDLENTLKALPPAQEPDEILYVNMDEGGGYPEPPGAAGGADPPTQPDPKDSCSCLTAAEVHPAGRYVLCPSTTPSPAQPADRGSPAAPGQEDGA
Protocol: A-172 glioblastoma cells (ATCC #CRL-1620) were seeded at 2.5×10^5 cells/well onto 24-well plates (Greiner #662165), in DMEM (Thermo Fisher #11995-040) containing 10% FBS (Thermo Fisher #26140-079), 1% MEM NEAA (Thermo Fisher #11140-050), 1% GlutaMax (Thermo Fisher #35050-061), and 1% Penicillin Streptomycin (Thermo Fisher #15140-122). A-172 cells were incubated at 37° C., 5% CO2 for 24 h and then starved for 24 h in serum-free medium. Test compounds were serially diluted to produce an 8-point dose curve in fresh serum-free medium to a final concentration of 0.3% DMSO (vehicle) and added to the cells and incubated for 1 h. Cells were then stimulated with 1 μg/mL recombinant human Gas6 (R&D Systems #885-GSB-500) for 15 min, washed with cold PBS, and immediately lysed with 150 μL of cold 1× lysis buffer [20 mM Tris, 137 mM sodium chloride, 2 mM EDTA, 10% glycerol, 1% NP-40 alternative, 1 mM activated sodium orthovanadate, 1 mM PefaBloc SC (Sigma-Aldrich #11429868001), protease/phosphatase inhibitor tablet (Thermo Fisher #A32959)]. Lysates were collected and 100 μL/well added into the human phospho-AXL DuoSet IC ELISA (R&D Systems #DYC2228-2). Assay was performed according to manufacturer's instructions and sample phospho-AXL concentrations were extrapolated using human phospho-AXL control (R&D Systems #841645) as a standard. Positive control wells (100% activity) contained Gas6-stimulated, DMSO-treated cell lysates. Negative control wells (0% activity) contained Gas6-stimulated, reference inhibitor-treated cell lysates. IC50 values were calculated by nonlinear regression analysis using a 4-parameter logistic curve fit in ActivityBase XE (IDBS).

Met, sequence (P08581 25-1390): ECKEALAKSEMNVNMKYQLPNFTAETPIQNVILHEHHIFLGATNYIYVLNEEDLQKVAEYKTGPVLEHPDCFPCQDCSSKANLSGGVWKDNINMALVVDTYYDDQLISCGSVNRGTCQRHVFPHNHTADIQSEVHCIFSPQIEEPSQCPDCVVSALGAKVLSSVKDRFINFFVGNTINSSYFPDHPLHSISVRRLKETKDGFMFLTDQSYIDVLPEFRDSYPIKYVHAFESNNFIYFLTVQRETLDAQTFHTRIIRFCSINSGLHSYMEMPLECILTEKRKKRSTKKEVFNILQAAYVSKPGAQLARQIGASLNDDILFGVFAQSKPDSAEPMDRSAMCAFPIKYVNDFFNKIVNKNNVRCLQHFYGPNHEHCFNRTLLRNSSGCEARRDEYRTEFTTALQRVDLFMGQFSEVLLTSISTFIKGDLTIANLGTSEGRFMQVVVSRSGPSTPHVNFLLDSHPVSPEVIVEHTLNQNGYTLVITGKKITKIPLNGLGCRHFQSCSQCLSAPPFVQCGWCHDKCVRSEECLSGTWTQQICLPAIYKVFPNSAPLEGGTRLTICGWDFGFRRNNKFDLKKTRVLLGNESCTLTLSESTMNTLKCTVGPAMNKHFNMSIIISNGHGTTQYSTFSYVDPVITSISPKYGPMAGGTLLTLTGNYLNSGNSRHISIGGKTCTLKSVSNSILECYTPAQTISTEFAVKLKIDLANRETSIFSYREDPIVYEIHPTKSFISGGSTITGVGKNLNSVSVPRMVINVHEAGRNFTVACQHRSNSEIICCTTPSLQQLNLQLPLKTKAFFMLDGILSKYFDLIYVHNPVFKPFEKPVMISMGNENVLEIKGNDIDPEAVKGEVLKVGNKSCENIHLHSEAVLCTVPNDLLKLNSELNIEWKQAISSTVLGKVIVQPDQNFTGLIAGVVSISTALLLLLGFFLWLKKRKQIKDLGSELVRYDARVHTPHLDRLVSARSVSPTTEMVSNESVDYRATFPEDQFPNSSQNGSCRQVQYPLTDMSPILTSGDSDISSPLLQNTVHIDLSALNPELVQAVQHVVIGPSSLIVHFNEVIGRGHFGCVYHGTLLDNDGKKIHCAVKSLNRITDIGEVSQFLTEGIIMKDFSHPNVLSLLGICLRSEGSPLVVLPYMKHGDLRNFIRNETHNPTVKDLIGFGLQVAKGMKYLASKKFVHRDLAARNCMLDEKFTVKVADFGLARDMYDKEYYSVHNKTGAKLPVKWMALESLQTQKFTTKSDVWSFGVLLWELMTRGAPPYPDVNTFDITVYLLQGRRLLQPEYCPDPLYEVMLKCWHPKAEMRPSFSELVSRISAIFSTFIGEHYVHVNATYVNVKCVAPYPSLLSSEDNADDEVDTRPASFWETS

Row | IC50 [1] | IC50 [2] | SMILES
1 | ≤ 100 nM | ≤ 100 nM | COc1cc2nccc(Oc3ccc(NC(=O)c4cn(CCF)c(C)c(-c5cccs5)c4=O)cc3F)c2nc1OC [Compound 327, N-[4-[(6,7-Dimethoxy-1,5-naphthyridin-4-yl)oxy]-3-fluorophenyl]-1-(2-fluoroethyl)-6-methyl-4-oxo-5-thiophen-2-ylpyridine-3-carboxamide]
2 | ≤ 100 nM | ≤ 100 nM | CCOc1ccn(-c2ccc(F)cn2)c(=O)c1C(=O)Nc1ccc(Oc2ccnc3cc(OC)c(OC)nc23)cc1 [Compound 244, N-[4-[(6,7-Dimethoxy-1,5-naphthyridin-4-yl)oxy]phenyl]-4-ethoxy-1-(5-fluoropyridin-2-yl)-2-oxopyridine-3-carboxamide]
3 | ≤ 100 nM | ≤ 100 nM | COc1cc2nccc(Oc3ccc(NC(=O)c4c5n(cc(-c6cc(C)cs6)c4=O)CCOC5)cc3F)c2nc1OC [Compound 302, N-[4-[(6,7-Dimethoxy-1,5-naphthyridin-4-yl)oxy]-3-fluorophenyl]-7-(4-methylthiophen-2-yl)-8-oxo-3,4-dihydro-1H-pyrido[2,1-c][1,4]oxazine-9-carboxamide]
4 | ≤ 100 nM | ≤ 100 nM | COc1cc2nccc(Oc3ccc(NC(=O)c4cc(C(C)=O)c(C)n(-c5ccoc5)c4=O)cc3F)c2nc1OC [Compound 235, 5-Acetyl-N-[4-[(6,7-dimethoxy-1,5-naphthyridin-4-yl)oxy]-3-fluorophenyl]-1-(furan-3-yl)-6-methyl-2-oxopyridine-3-carboxamide]
5 | ≤ 100 nM | ≤ 100 nM | CCc1c(C(=O)Nc2ccc(Oc3ccnc4cc(OC)c(OC)nc34)c(F)c2)c(=O)c(-c2ccco2)c(C)n1C [Compound 324, N-[4-[(6,7-Dimethoxy-1,5-naphthyridin-4-yl)oxy]-3-fluorophenyl]-2-ethyl-5-(furan-2-yl)-1,6-dimethyl-4-oxopyridine-3-carboxamide]
6 | ≤ 100 nM | ≤ 100 nM | COc1cc2nccc(Oc3ccc(NC(=O)c4c(C)cc(C)n(-c5ccc(F)cn5)c4=O)cc3)c2nc1OC [Compound 245, N-[4-[(6,7-Dimethoxy-1,5-naphthyridin-4-yl)oxy]phenyl]-1-(5-fluoropyridin-2-yl)-4,6-dimethyl-2-oxopyridine-3-carboxamide]
7 | ≤ 100 nM | ≤ 100 nM | COCCOc1cc2nccc(Oc3ccc(NC(=O)c4c(C)n(C)c(C)c(-c5ccco5)c4=O)cc3F)c2nc1OC [Compound 254, N-[3-Fluoro-4-[[6-methoxy-7-(2-methoxyethoxy)-1,5-naphthyridin-4-yl]oxy]phenyl]-5-(furan-2-yl)-1,2,6-trimethyl-4-oxopyridine-3-carboxamide]
8 | ≤ 100 nM | ≤ 100 nM | COc1cc2nccc(Oc3ccc(NC(=O)c4c5n(cc(-c6cccs6)c4=O)CCOC5)cc3)c2nc1OC [Compound 299, N-[4-[(6,7-Dimethoxy-1,5-naphthyridin-4-yl)oxy]phenyl]-8-oxo-7-thiophen-2-yl-3,4-dihydro-1H-pyrido[2,1-c][1,4]oxazine-9-carboxamide]

Second part, the compound before the results:

Row | SMILES | IC50 [1] | IC50 [2]
9 | COc1cc2nccc(Oc3ccc(NC(=O)c4ccc(C)n(-c5ccncc5)c4=O)cc3F)c2nc1OC [Compound 221, N-[4-[(6,7-Dimethoxy-1,5-naphthyridin-4-yl)oxy]-3-fluorophenyl]-6-methyl-2-oxo-1-pyridin-4-ylpyridine-3-carboxamid] | ≤ 100 nM | ≤ 100 nM
10 | COc1cc2nccc(Oc3ccc(NC(=O)c4c(C)ncc(-c5ncc(F)cc5C)c4O)cc3F)c2nc1OC [Compound 200, N-[4-[(6,7-Dimethoxy-1,5-naphthyridin-4-yl)oxy]-3-fluorophenyl]-5-(5-fluoro-3-methylpyridin-2-yl)-4-hydroxy-2-methylpyridine-3-carboxamide] | ≤ 100 nM | ≤ 100 nM
11 | COc1cc2nccc(Oc3ccc(NC(=O)c4ccc(C)n(-c5ncc(F)cc5C)c4=O)cc3F)c2nc1OC [Compound 51, N-[4-[(6,7-Dimethoxy-1,5-naphthyridin-4-yl)oxy]-3-fluorophenyl]-1-(5-fluoro-3-methylpyridin-2-yl)-6-methyl-2-oxopyridine-3-carboxamide] | ≤ 100 nM | ≤ 100 nM
12 | COc1cc2nccc(Oc3ccc(NC(=O)c4c(C)n(C)cc(-c5ccc(F)cn5)c4=O)cc3)c2nc1OC [Compound 72, N-[4-[(6,7-Dimethoxy-1,5-naphthyridin-4-yl)oxy]phenyl]-5-(5-fluoropyridin-2-yl)-1,2-dimethyl-4-oxopyridine-3-carboxamide] | ≤ 100 nM | ≤ 100 nM
13 | COc1cc(-n2c(C)ccc(C(=O)Nc3ccc(Oc4ccnc5cc(OC)c(OC)nc45)c(F)c3)c2=O)ccn1 [Compound 226, N-[4-[(6,7-Dimethoxy-1,5-naphthyridin-4-yl)oxy]-3-fluorophenyl]-1-(2-methoxypyridin-4-yl)-6-methyl-2-oxopyridine-3-carboxamide] | ≤ 100 nM | ≤ 100 nM
14 | COc1cc2nccc(Oc3ccc(NC(=O)c4c(C)n(C)cc(-c5ccc(F)cn5)c4=O)cc3F)c2nc1OC [Compound 71, N-[4-[(6,7-Dimethoxy-1,5-naphthyridin-4-yl)oxy]-3-fluorophenyl]-5-(5-fluoropyridin-2-yl)-1,2-dimethyl-4-oxopyridine-3-carboxamide] | ≤ 100 nM | ≤ 100 nM
15 | COc1cnc2c(Oc3ccc(NC(=O)c4c(C)n(C)cc(-c5ccc(F)cn5)c4=O)cc3F)ccnc2c1 [Compound 73, N-[3-Fluoro-4-[(7-methoxy-1,5-naphthyridin-4-yl)oxy]phenyl]-5-(5-fluoropyridin-2-yl)-1,2-dimethyl-4-oxopyridine-3-carboxamide] | ≤ 100 nM | ≤ 100 nM
16 | COc1ccc2nccc(Oc3ccc(NC(=O)c4ccc(C)n(-c5ccc(F)cn5)c4=O)cc3F)c2n1 [Compound 47, N-[3-Fluoro-4-[(6-methoxy-1,5-naphthyridin-4-yl)oxy]phenyl]-1-(5-fluoropyridin-2-yl)-6-methyl-2-oxopyridine-3-carboxamide] | ≤ 100 nM | ≤ 100 nM
17 | COc1cc2nccc(Oc3ccc(NC(=O)c4cc(C#N)c(C)n(-c5ccc(F)cn5)c4=O)cc3F)c2nc1OC [Compound 56, 5-Cyano-N-[4-[(6,7-dimethoxy-1,5-naphthyridin-4-yl)oxy]-3-fluorophenyl]-1-(5-fluoropyridin-2-yl)-6-methyl-2-oxopyridine-3-carboxamide] | ≤ 100 nM | ≤ 100 nM
18 | COc1cc2nccc(Oc3ccc(NC(=O)c4ccc(C)n(-c5ccnc(C)c5)c4=O)cc3F)c2nc1OC [Compound 230, N-[4-[(6,7-Dimethoxy-1,5-naphthyridin-4-yl)oxy]-3-fluorophenyl]-6-methyl-1-(2-methylpyridin-4-yl)-2-oxopyridine-3-carboxamide] | ≤ 100 nM | ≤ 100 nM
19 | Cc1ccc(C(=O)Nc2ccc(Oc3ccnc4cccnc34)c(F)c2)c(=O)n1-c1ccc(F)cn1 [Compound 48, N-[3-Fluoro-4-(1,5-naphthyridin-4-yloxy)phenyl]-1-(5-fluoropyridin-2-yl)-6-methyl-2-oxopyridine-3-carboxamide] | ≤ 100 nM | ≤ 100 nM
